Tests used:
Type in all cases: in vivo
[1] = tested on: salty taste and/or umami taste; experiment: Sensory tests of the compounds of formula (I) and (III) in reference solutions (NaCl, MSG, KCl), with or without nose clip; details: for enhancing effect for a salty or umami taste: references: 0.25% NaCl, 0.05% MSG, 0.25% KCl solution, FIGS. 1-6
Procedure: Sensory tests of the compounds of the present application were conducted. The compounds of formula (I) and (III) of the present application were tasted in sensory tests for their ability to enhance salty taste and/or umami taste in food products. The sensory tests were evaluated in four characters as saltiness, umami taste, saltiness in the presence of potassium chloride, and potassium chloride taste. The food products were evaluated with or without these compounds relevant to references (as indicated “With NC-Ref”, or “Without NC-Ref” in figures). The reference for saltiness was a 0.25% NaCl solution, the reference for umami was a 0.05% MSG solution, and the salty/bitter reference was a 0.25% KCl solution. The data was analyzed for statistical significances (indicated as * in the figures), such as levels of significance or graph of differences between means.
FIGS. 1-6 show the results of sensory tests for enhancing salty taste and/or umami taste using the compounds of formula (I) and (III) of the present application.

[2] = tested on: salty taste and/or umami taste; experiment: Sensory tests in chicken bouillon; details: for taste description: 10 ppm in chicken bouillon (0.7% salt, 0.04% MSG)
Procedure: [10]-gingerdiol and [10]-gingerdioldiacetate were tested to evaluate their ability to enhance salty taste and/or umami taste in chicken bouillon (GVA-000589, 0.7% salt, 0.04% MSG, no pepper, with 0.08% Chicken Flexarome 880449 FBS42).
The sensory tests were evaluated for salt intensity, umami intensity, and liking intensity. The experiments were conducted in four designs, i.e. UNF (reference), Ericamide ((E)-3-(3,4-dimethoxyphenyl)-N-(4-methoxyphenethyl)acrylamide, FEMA 4877) at 10 ppm, [10]-gingerdiol at 10 ppm, and [10]-gingerdioldiacetate at 10 ppm.

[3] = tested on: salty taste and/or umami taste; experiment: Sensory tests in basic beef noodle seasoning; details: 10 ppm in salt water, in comparison to 0.3% salt; FIG. 8
Procedure: [6]-gingerdiol, [8]-gingerdiol, and [10]-gingerdioldiacetate were tested to evaluate their abilities to enhance salty taste and/or umami taste in basic beef noodle seasoning (GVA-003129, no salt, no MSG; salt (−25%) 0.525% RTC, MSG 0.25% RTC; Corned Beef 589879 CB at 0.2% RTC).
The sensory tests were evaluated for salt intensity, umami intensity, bitter intensity and liking intensity. The experiments were conducts in four designs, i.e. salt at 0.3%, [6]-gingerdiol at 10 ppm in salt water, [8]-gingerdiol at 10 ppm in salt water, and [10]-gingerdioldiacetate at 10 ppm in salt water.

Structure (SMILES) | enhancing salty taste and/or umami taste in food products ([1]; FIG. 4) | enhancing effect for a salty or umami taste [1] | taste description [2] | bitter intensity [3] | liking intensity [3] | salt intensity [3] | umami intensity [3] | salt intensity ([2]; 10 ppm in chicken bouillon, vs UNF (reference), FIG. 9)
CCCCCCC[C@@H](C[C@@H](CCc1ccc(O)c(OC)c1)OC(C)=O)OC(C)=O [[8]-gingerdioldiacetate] | unexpected and excellent results | enhancing effect for a salty or umami taste |  |  |  |  |  | 
COc1ccc(CCNC(=O)/C=C/c2ccc(OC)c(OC)c2)cc1 [Ericamide, (E)-3-(3,4-dimethoxyphenyl)-N-(4-methoxyphenethyl)acrylamide, reference compound] |  |  | chickeny, balanced, good mouthfeel and salty tastes |  |  |  |  | 
CCCCC[C@H](O)C[C@H](O)CCc1ccc(O)c(OC)c1 [[6]-gingerdiol] |  |  |  | less bitter intensities | higher liking intensities | comparable salt intensities | higher umami intensities | 
CCCCCCC[C@H](O)C[C@H](O)CCc1ccc(O)c(OC)c1 [[8]-gingerdiol] |  | enhancing effect for a salty or umami taste |  | less bitter intensities | higher liking intensities | comparable salt intensities | higher umami intensities | 
CCCCCCCCC[C@@H](C[C@@H](CCc1ccc(O)c(OC)c1)OC(C)=O)OC(C)=O [[10]-gingerdioldiacetate] |  | enhancing effect for a salty or umami taste | strange, salty, solvent note, fruity, and some off tastes | less bitter intensities | higher liking intensities | higher salt intensity | higher umami intensities | 
CCCCCCCCC[C@H](O)C[C@H](O)CCc1ccc(O)c(OC)c1 [[10]-gingerdiol] |  | enhancing effect for a salty or umami taste | less round, more salty, more acidic, chickeny balanced, coriander leaf, good and quite clean tastes |  |  |  |  | unexpected effects in enhancing the salt intensity
